This is an account of results in patent publication US5847123A, “Imide derivatives for inhibiting the production of interleukin-1β and the production of tumor necrosis factor α” (Nisshin Flour Milling Co., Ltd., priority 1996, dated 1998).

The subject of one series is IL-1β production. In words: Inhibitory activity of the IL-1β production in PMA/polyinosic acid-stimulated THP-1 cells (enzyme immunoassay). The series is classed as cell-based, human (THP-1 cells). The following applies: Homo sapiens, PMA 2 μg/ml and polyinosic acid 200 μg/ml, 22 hours. The protocol: (§1) Determination for the inhibitory activity of the IL-1β production and the inhibitory activity of the TNFα production
(§2) The THP-1 cells, which is the monocyte-established cell line derived from human peripheral blood (ATCC TIB202), were incubated at 37° C. in a 5% CO2 incubator in RPMI 1640 medium (available from Bio-Whittaker Co., Ltd.) containing 10% (v/v) of fetal bovine serum, 2 mM of glutamine, 50 μM of 2-mercaptoethanol, 60 μg/ml of penicillin and 100 μg/ml of streptomycin. The THP-1 cells maintained as described above were centrifuged at 1200 rpm at room temperature for 3 minutes to recover the cells in a 50 ml conical tube. The cell pellets thus obtained were resuspended in RPMI 1640 medium containing 2% (v/v) of fetal bovine serum and the glutamine, 2-mercaptoethanol and antibiotics as described above so as to provide a final THP-1 cell concentration of 2×10^6 cells/ml.
(§3) The cell resuspension having the above concentration was dispensed in 0.5 ml portions to a 24-well plate for cell culture. Then, 2.5 μl each of the solutions of the present imide derivatives dissolved in DMSO was added to each well. The plate was then incubated at 37° C. in a 5% CO2 incubator for one hour. Then, 12-o-tetradecanoylphorbol-13-acetate (hereinafter referred to as PMA) and polyinosic acid were added to each well so as to provide the final concentrations of 2 μg/ml and 200 μg/ml, respectively. The plate was further incubated at 37° C. in a 5% CO2 incubator for 22 hours and the IL-1β and TNFα produced in the cultured broth were assayed. The assay for IL-1β was carried out by means of the enzyme immunoassay kit available from Cayman Chemical Co., Ltd., while the assay of TNFα was done by means of the ELIZA kit available from Genzyme Co., Ltd.
(§4) The inhibitory activity was expressed in terms of IC50 values, wherein the produced amount of IL-1β and the produced amount of TNFα when no imide derivative was added are defined as 100, respectively, and the concentration of each imide derivative of the present invention to inhibit the IL-1β production and TNFα production is defined as IC50, respectively.

In series [1] the test system is TNFα production. In words: Inhibitory activity of the TNFα production in PMA/polyinosic acid-stimulated THP-1 cells (ELIZA kit). The series is classed as cell-based, human (THP-1 cells). The following applies: Homo sapiens, PMA 2 μg/ml and polyinosic acid 200 μg/ml, 22 hours. The procedure: as §1, §2, §3, §4
The nature of series [2]: Determination for cytotoxicity in THP-1 cells (Alamar Blue). The series is classed as cell-based. The following applies: human, 24 hours incubation, read-out: LD50 (lethal dose for 50% in the THP-1 cells). The protocol: Determination for Cytotoxicity The THP-1 cells, which is the monocyte-established cell line derived from human peripheral blood (ATCC TIB202), were incubated at 37° C. in a 5% CO2 incubator in RPMI 1640 medium (available from Bio-Whittaker Co., Ltd.) containing 10% (v/v) of fetal bovine serum, 2 mM of glutamine, 50 μM of 2-mercaptoethanol, 60 μg/ml of penicillin and 100 μg/ml of streptomycin. The THP-1 cells maintained as described above were centrifuged at 1200 rpm at room temperature for 3 minutes to recover the cells in a 50 ml conical tube. The cell pellets thus obtained were suspended in RPMI 1640 medium containing 2% (v/v) of fetal bovine serum, 2 mM of glutamine, 50 μM of 2-mercaptoethanol, 60 μg/ml of penicillin and 100 μg/ml of streptomycin so as to provide the final cell concentration of 1×10^6 cells/ml. The cell suspension obtained as above was dispensed in 1 ml portions to a 24-well plate for cell culture. Then, 5 μl each of the solutions of the present imide derivatives dissolved in DMSO was added to each well. The plate was then incubated at 37° C. in a 5% CO2 incubator for 24 hours. After incubation, 100 μl of Alamar Blue (available from Biosource Co., Ltd.) was added to each well and then the plate was further incubated at 37° C. in a 5% CO2 incubator for 3 hours. Thereafter, a supernatant was recovered and determined for a difference in absorbances at 570 nm and 600 nm. Cytotoxicity was then evaluated in accordance with the survival rates determined from the differences in absorbances. More specifically, the lethal dose for 50% (LD50) in the THP-1 cells were calculated.
On the technique in general: The colour change of resazurin is a common sign of viable cells or microbes.

Series [3] concerns TNFα production. Kind of series: Inhibitory activity of the TNFα production in LPS-treated mice (blood TNFα level). It is filed as in vivo, DBA/2 strain mice. To be noted: for Inhibitory rate (%) of TNFα production: 10 mg/kg i.p. twice (before and after 30 minutes from LPS 5.6 mg/kg i.v.), blood TNFα after 2 hours; for inhibitory activity on the TNFα production in mice (in words): 10 mg/kg i.p., LPS-treated DBA/2 mice. The protocol: Determination for the inhibitory activity of the TNFα production To the DBA/2 strain mice previously given with LPS 5.6 mg/kg, i.v. were intraperitoneally administered twice before and after 30 minutes from the LPS administration the present imide derivatives selected from Compound 1, Compound 3, Compound 7, Compound 8, Compound 9 and Compound 26. After 2 hours from the LPD administration, the blood TNFα level was determined to investigate the inhibitory activity of the present imide derivatives on the TNFα production. More specifically, the blood TNFα level was determined when the present imide derivative was given at a dose of 10 mg/kg to calculate the inhibitory rate of the TNFα production.

As usually defined, the IC50 is the concentration that inhibits the measured activity by half. High values mean weaker potency in that assay, low ones greater potency in that assay. As for `COC(=O)C1CCC(=O)N1C(=O)C#Cc1ccccc1` (racemic) [Compound 21], the IC50 came out at 7 µM with IL-1β production and 0.6 µM with TNFα production [1].
With `O=C(C#Cc1ccccc1)N1CCCC1=O` [Compound 1], the IC50 in the series with IL-1β production was found to be 1.4 µM; in the series on TNFα production [1], 1 µM. Also, the CC50 at 24 h in series [2] was 70 µM. The “Inhibitory rate (%) of TNFα production” value in the series with TNFα production [3] was 22%. Further, the “inhibitory activity on the TNFα production in mice (in words)” value (from here on “inhibitory activity”) with TNFα production [3] is given as “significant inhibitory activity”.
Regarding `O=C(C#Cc1ccc(Cl)cc1)N1CCCC1=O` [Compound 2], the values for the IC50 in the series on IL-1β production and with TNFα production [1] were 5.5 µM and 1.6 µM, respectively.
For the molecule `O=C(C#Cc1ccc(F)cc1)N1CCCC1=O` [Compound 3], in the series with IL-1β production, the IC50 amounted to 3.8 µM. The concentration for half-maximal inhibition (IC50) in the series on TNFα production [1] came out at 1.3 µM. Moreover, in series [2], the CC50 at 24 h is over 100 µM. Further, in the series with TNFα production [3], the “Inhibitory rate (%) of TNFα production” value is on record as 37% and the “inhibitory activity” value is on record as “significant inhibitory activity”.
In the case of `N#Cc1ccc(C#CC(=O)N2CCCC2=O)cc1` [Compound 4], the IC50 turned out to be 7 µM with IL-1β production and 1.7 µM with TNFα production [1].
On the same counts, the results for `N#Cc1ccc(C#CC(=O)N2CCOC2=O)cc1` [Compound 5] are 2.6 µM and 2.1 µM.
Consider `O=C(C#Cc1ccc(F)cc1)N1CCOC1=O` [Compound 6], for which the IC50 with IL-1β production came out at 2.4 µM; in the series on TNFα production [1] it was 1.7 µM. Also, the CC50 at 24 h in series [2] is over 100 µM.
Regarding `O=C(C#Cc1ccccc1)N1CCOC1=O` [Compound 7], the IC50 in the series on IL-1β production came out at 1.1 µM; in the series on TNFα production [1], 1.2 µM. For the same molecule, in series [2], the CC50 at 24 h was over 200 µM. Further, the “Inhibitory rate (%) of TNFα production” value in the series with TNFα production [3] stood at 22%. In addition, the “inhibitory activity” value with TNFα production [3] is on record as “significant inhibitory activity”.
For `O=C(C#Cc1ccccc1)N1CCCCCC1=O` [Compound 8], in that order: 6 µM, 2.1 µM, over 200 µM, 31% and “significant inhibitory activity”.
On the same counts, the results for `CC1CCC(=O)N1C(=O)C#Cc1ccccc1` (stereo not shown) [Compound 9] are 2.8 µM, 0.9 µM, 110 µM, 29% and “significant inhibitory activity”.
`O=C(C#Cc1ccccc1)N1CCN(C(=O)C#Cc2ccccc2)C1=O` [Compound 10]: the values for the IC50 with IL-1β production and in the series on TNFα production [1] were 6.7 µM and 0.5 µM, respectively.
On to `O=C(C#Cc1ccccc1)N1CCNC1=O` [Compound 11], for which the IC50 in the series with IL-1β production came to 1.8 µM; in the series on TNFα production [1], 0.5 µM.
As to `CCN(C(=O)C#Cc1ccccc1)C(=O)c1ccccc1` [Compound 12], the figures for the IC50 in the series on IL-1β production and in the series with TNFα production [1] were 9.6 µM and 5.4 µM, respectively.
As for `O=C(C#Cc1ccccc1)N(Cc1ccc(F)cc1)C(=O)c1ccccc1` [Compound 13], the 50% inhibitory concentration (IC50) in the series on IL-1β production and with TNFα production [1] was 15 µM throughout.
In the case of `CC(=O)NC(=O)C#Cc1ccccc1` [Compound 14], the concentration for half-maximal inhibition (IC50) in the series with IL-1β production amounted to 4.4 µM; in the series with TNFα production [1] it was 1.8 µM.
On the same counts, the results for `CC(=O)N(C(=O)C#Cc1ccccc1)c1ccc2c(c1)OCO2` [Compound 15] are 6.3 µM and 1.7 µM.
As to `CCCCC(=O)N(CCCC)C(=O)C#Cc1ccccc1` [Compound 16], the results for the IC50 in the series on IL-1β production and in the series with TNFα production [1] were 13 µM and 14 µM, respectively.
For `COc1ccccc1CN(C(C)=O)C(=O)C#Cc1ccccc1` [Compound 17], in that order: 3.1 µM and 1.8 µM.
On the same counts, the results for `CCN(C(C)=O)C(=O)C#Cc1ccccc1` [Compound 18] are 5.7 µM and 4.4 µM.
On the same counts, the results for `CCN(C(=O)C#Cc1ccccc1)C(=O)Cc1ccccc1Cl` [Compound 19] are 2 µM and 1.3 µM.
For the molecule `Cc1ccccc1N(C(=O)C#Cc1ccccc1)C(=O)CCc1ccccc1` [Compound 20], the figures for the IC50 in the series with IL-1β production and in the series on TNFα production [1] were 1.3 µM and 1.9 µM, respectively.
On to `CC(=O)N(C(=O)C#Cc1ccccc1)c1ccccn1` [Compound 22], for which the IC50 is 12 µM with IL-1β production and 14 µM in the series on TNFα production [1].
Consider `CC(=O)N(Cc1ccco1)C(=O)C#Cc1ccccc1` [Compound 24], for which the figures for the IC50 in the series with IL-1β production and in the series with TNFα production [1] were 10 µM and 4.4 µM, respectively.
On the same counts, the results for `CCN(C(=O)C#Cc1ccccc1)C(=O)c1cccs1` [Compound 25] are over 30 µM and 4.8 µM.
`CC(=O)N(C(=O)C#Cc1ccccc1)c1ccncc1` [Compound 26]: the IC50 with IL-1β production was 8.8 µM. Also, the midpoint of inhibition in the series on TNFα production [1], the IC50, lay at 1.7 µM. Moreover, in the series on TNFα production [3], the “Inhibitory rate (%) of TNFα production” value came out at 37% and the “inhibitory activity” value is “significant inhibitory activity”.
For `O=C(C#Cc1ccccc1)N(C(=O)c1ccccc1)c1ccc(F)cc1F` [Compound 27], the IC50 was found to be 14 µM with IL-1β production and 3 µM with TNFα production [1].
On the same counts, the results for `CC(=O)N(CCc1ccccc1)C(=O)C#Cc1ccccc1` [Compound 28] are 8.8 µM and 1.7 µM.
For `CCN(C(=O)C#Cc1ccccc1)C(=O)COC` [Compound 29], in that order: over 30 µM and over 30 µM.
On the same counts, the results for `CC(=O)N(CCN(C)C)C(=O)C#Cc1ccccc1` [Compound 30] are 6.3 µM and 3.7 µM.
